Patent US10882867B2, “Forms and compositions of a MK2 inhibitor” (Celgene CAR LLC, priority 2017, dated 2021)
Values after ≈ are worked out from the molar mass of the structure shown. One block for each molecule: values may come before it.

Assays:
[1] = DSC and TGA thermal analysis; conditions: for endotherm observed (DSC): complex of Compound 1 with co-former, sample from primary salt/co-crystal screen; for % loss (TGA): screen sample
[2] = Dynamic vapor sorption (DVS) hygroscopicity; type: physicochemical; conditions: for Hygroscopicity: DVS, 0 to 90% RH
Experimental: Hygroscopicity was determined on a Surface Measurement Systems DVS. A sample size of 5-20 mg was loaded into the DVS instrument sample pan and the sample was analyzed on a DVS automated sorption analyzer at room temperature. The relative humidity was increased from 0% to 90% RH at 10% RH step, then decreased in a similar manner to accomplish a full adsorption/desorption cycle. FIGS. 29-33 depict the DVS isotherm plots of Forms A, C, D, E, and I.

[3] = Form conversion (form transfer) experiments: slurry, compression, heating, humidity cycle; type: physicochemical
Experimental: Form conversion experiments were performed to determine interconversion among solid forms.
The stability of Form A was further characterized by compression test and form transfer experiments (Table 6). Upon application of 2000-psi pressure for about 1 minute, the material was still Form A, with broader diffraction peaks (FIG. 42(c)).

[4] = Approximate solubility of Compound 1 Form A at room temperature; type: physicochemical; conditions: for solubility at 1 day: thermodynamic from solid
Excerpt: Solubility of Form A was approximated in the following solvents: acetonitrile (ACN), ACN/water (1:1), n-butanol (n-BuOH), absolute ethanol (EtOH), ethanol/water (1:1), methanol (MeOH), 2-propanol (IPA), ethyl acetate (EtOAc), methyl acetate (MeOAc), dichloromethane (DCM), methyl ethyl ketone (MEK), methyl t-butyl ether (MTBE), heptane, toluene, methyl acetate (MeOAc), isopropyl acetate (IPAc), methyl isobutyl ketone (MIBK), 2-methyltetrahydrofuran (2-MeTHF), 1,4-dioxane, tetrahydrofuran (THF), THF/water (1:1), water, dimethyl sufoxide (DMSO), dimethylacetamide (DMA, DMAc), and N-methylpyrrolidone (NMP). A weighed sample of Form A (about 50 mg) was treated with a known volume of a test solvent. The resulting mixture was agitated for 1 day at room temperature. If all of the solids appeared to be dissolved by visual inspection, the estimated solubility was calculated based on the total volume of solvent used to give a complete solution. If solids were present, a known volume of filtrate was evaporated to dryness and the weight of the residue was measured to estimate the solubility.

[5] = between 0 and 90% RH, room temperature
[6] = 0-90-0% RH cycle in DVS, 25° C.
[7] = compression, 2000 psi, RT, 1 min
[8] = heating in KF oven, 190° C., ~10 min

Structure (SMILES): CS(=O)(=O)O [methanesulfonic acid]
endotherm observed (DSC) [1]: endotherm observed at 157.01 °C
% loss (TGA) ([1]; up to 160° C.): 8.28% loss up to 160 °C

Structure (SMILES): N#CS [thiocyanic acid]
% loss (TGA) ([1]; from 100 to 200° C.): 6.54% loss from 100 to 200 °C
% loss (TGA) ([1]; up to 100° C.): 3.04% loss up to 100 °C

Structure (SMILES): O=C1NS(=O)(=O)c2ccccc21 [saccharin]
% loss (TGA) ([1]; up to […] C.): 3.70% loss up to 165 °C

Structure (SMILES): NCCCC[C@H](N)C(=O)O [L-lysine]
% loss (TGA) ([1]; from 150 to 250° C.): 12.61% loss from 150 to 250 °C
% loss (TGA) ([1]; up to 150° C.): 7.32% loss up to 150 °C

Structure (SMILES): Cc1ccc(S(=O)(=O)O)cc1 [p-toluenesulfonic acid]
% loss (TGA) ([1]; up to 130° C.): 3.50% loss up to 130 °C

Structure (SMILES): O=C(O)c1ccc2ccccc2c1O [1-hydroxy-2-naphthoic acid (Form 2)]
endotherm observed (DSC) [1]: endotherm observed at 169.60 °C
% loss (TGA) ([1]; up to 150° C.): 1.86% loss up to 150 °C

Structure (SMILES): O=C1O[C@H]([C@@H](O)CO)C(O)=C1O [L-ascorbic acid]
endotherm observed (DSC) [1]: endotherm observed at 88.26 °C
% loss (TGA) ([1]; up to 100° C.): 2.55% loss up to 100 °C

Structure (SMILES): O=C(O)c1cc(O)ccc1O [gentisic acid]
endotherm observed (DSC) [1]: endotherm observed at 115.17 °C
% loss (TGA) ([1]; up to 120° C.): 1.69% loss up to 120 °C

Structure (SMILES): O=C(O)c1ccc2ccccc2c1O [1-hydroxy-2-naphthoic acid (Form 1)]
% loss (TGA) ([1]; up to 150° C.): 10.82% loss up to 150 °C

Structure (SMILES): O=C(O)/C=C\C(=O)O [maleic acid]
endotherm observed (DSC) [1]: endotherm observed at 153.89 °C
% loss (TGA) ([1]; up to […] C.): 9.87% loss up to 155 °C

Second part, led by results:

DVS water uptake ([2]; between 0 and 60% RH): about 2.2 wt %
DVS water uptake [2, 5]: 7.5 wt %
DVS water uptake ([2]; between 0 and 90% RH, room temperature, listed as E): DVS: ~7.5 wt % water
Resulting Form(s) [3, 6]: No form change
Resulting form ([3]; THF/water (5/95), long periods of equilibration): converted to Form A
Resulting Form(s) [3, 7]: still Form E
Resulting Form(s) [3, 8]: confirmed to be Form E
Resulting form ([3]; slurry in acetone, temperature and time not given): converts to Form A
Structure (SMILES): CCOCc1cnc(Cl)nc1Oc1ccc2c(ccc3sc4c(c32)NC[C@@H](C)NC4=O)n1 [Form E, (R)-3-((2-chloro-5-(ethoxymethyl)pyrimidin-4-yl)oxy)-10-methyl-9,10,11,12-tetrahydro-8H-[1,4]diazepino[5′,6′:4,5]thieno[3,2-f]quinolin-8-one]

Hygroscopicity [2]: slightly hygroscopic
DVS water uptake [2, 5]: about 2.6 wt %
DVS water uptake ([2]; between 0 and 90% RH, room temperature, listed as D): DVS: ~2.6 wt % water
Resulting Form(s) [3, 6]: No form change
Resulting Form(s) [3, 7]: mainly Form D
Resulting Form(s) ([3]; compression, 2000 psi, RT, 1 min, listed as D): D (+ A?)
Resulting Form(s) [3, 8]: confirmed to be Form A
Structure (SMILES): CCOCc1cnc(Cl)nc1Oc1ccc2c(ccc3sc4c(c32)NC[C@@H](C)NC4=O)n1 [Form D, (R)-3-((2-chloro-5-(ethoxymethyl)pyrimidin-4-yl)oxy)-10-methyl-9,10,11,12-tetrahydro-8H-[1,4]diazepino[5′,6′:4,5]thieno[3,2-f]quinolin-8-one]

DVS water uptake [2, 5]: Approximately 1.5 wt %
Resulting Form(s) [3, 6]: change to Form A
Structure (SMILES): CCOCc1cnc(Cl)nc1Oc1ccc2c(ccc3sc4c(c32)NC[C@@H](C)NC4=O)n1 [Form I, (R)-3-((2-chloro-5-(ethoxymethyl)pyrimidin-4-yl)oxy)-10-methyl-9,10,11,12-tetrahydro-8H-[1,4]diazepino[5′,6′:4,5]thieno[3,2-f]quinolin-8-one]

Resulting Form(s) ([3]; slurry in THF/water (5:95), RT, 8 days): A + I
Resulting Form(s) ([3]; slurry in water, RT, 4 days): generated Form I
Structure (SMILES): CCOCc1cnc(Cl)nc1Oc1ccc2c(ccc3sc4c(c32)NC[C@@H](C)NC4=O)n1 [Form H, (R)-3-((2-chloro-5-(ethoxymethyl)pyrimidin-4-yl)oxy)-10-methyl-9,10,11,12-tetrahydro-8H-[1,4]diazepino[5′,6′:4,5]thieno[3,2-f]quinolin-8-one]

Hygroscopicity [2]: hygroscopic
DVS water uptake [2, 5]: approximately 4.1 wt %
DVS water uptake ([2]; between 0 and 90% RH, room temperature, listed as C): DVS: ~4.1 wt % water
Resulting Form(s) [3, 6]: E + C + peaks
Resulting Form(s) [3, 7]: partially convert to Form E
Resulting Form(s) ([3]; compression, 2000 psi, RT, 1 min, listed as C): E + C + peaks
Resulting Form(s) [3, 8]: a mixture of Form A and Form C
Resulting Form(s) ([3]; heating in KF oven, 190° C., ~10 min, listed as C): A + C (shifted)
Resulting form ([3]; slurry in THF/water (5:95), time not given): convert to Form E
Structure (SMILES): CCOCc1cnc(Cl)nc1Oc1ccc2c(ccc3sc4c(c32)NC[C@@H](C)NC4=O)n1 [Form C, (R)-3-((2-chloro-5-(ethoxymethyl)pyrimidin-4-yl)oxy)-10-methyl-9,10,11,12-tetrahydro-8H-[1,4]diazepino[5′,6′:4,5]thieno[3,2-f]quinolin-8-one]

solubility at 1 day ([4]; 2-MeTHF (2-methyltetrahydrofuran), organic solvent or mixture, 2-MeTHF, 1 day): < 2000 µg/mL
solubility at 1 day ([4]; ACN (acetonitrile), organic solvent or mixture, ACN, 1 day): < 2000 µg/mL
solubility at 1 day ([4]; ACN/water (1:1), aqueous with cosolvent or surfactant or cyclodextrin, ACN/water (1:1), 1 day): < 1000 µg/mL
solubility at 1 day ([4]; DCM (dichloromethane), organic solvent or mixture, DCM, 1 day): 8000 to 16000 µg/mL (≈ 17 to 34 mM)
Approximate Solubility ([4]; DCM, 1 day): <9000 µg/mL
solubility at 1 day ([4]; DMA (dimethylacetamide), organic solvent or mixture, DMA, 1 day): > 50000 µg/mL
Approximate Solubility ([4]; DMA, 1 day): >50000 µg/mL
Approximate Solubility ([4]; DMSO, 1 day): >50000 µg/mL
solubility at 1 day ([4]; DMSO, organic solvent or mixture, 1 day): > 50000 µg/mL
solubility at 1 day ([4]; EtOAc (ethyl acetate), organic solvent or mixture, EtOAc, 1 day): < 1000 µg/mL
solubility at 1 day ([4]; EtOH (absolute ethanol), organic solvent or mixture, EtOH, 1 day): < 2000 µg/mL
solubility at 1 day ([4]; EtOH/water (1:1), aqueous with cosolvent or surfactant or cyclodextrin, EtOH/water (1:1), 1 day): < 1000 µg/mL
solubility at 1 day ([4]; IPA (2-propanol), organic solvent or mixture, IPA, 1 day): < 1000 µg/mL
solubility at 1 day ([4]; IPAc (isopropyl acetate), organic solvent or mixture, IPAc, 1 day): < 1000 µg/mL
solubility at 1 day ([4]; MEK (methyl ethyl ketone), organic solvent or mixture, MEK, 1 day): > 2000 µg/mL
Approximate Solubility ([4]; MEK, 1 day): <3000 µg/mL
solubility at 1 day ([4]; MIBK (methyl isobutyl ketone), organic solvent or mixture, MIBK, 1 day): < 1000 µg/mL
solubility at 1 day ([4]; MTBE (methyl t-butyl ether), organic solvent or mixture, MTBE, 1 day): < 1000 µg/mL
solubility at 1 day ([4]; MeOAc (methyl acetate), organic solvent or mixture, MeOAc, 1 day): < 2000 µg/mL
solubility at 1 day ([4]; MeOH (methanol), organic solvent or mixture, MeOH, 1 day): < 3000 µg/mL
solubility at 1 day ([4]; NMP (N-methylpyrrolidone), organic solvent or mixture, NMP, 1 day): > 50000 µg/mL
Approximate Solubility ([4]; NMP, 1 day): >50000 µg/mL
solubility at 1 day ([4]; THF (tetrahydrofuran), organic solvent or mixture, THF, 1 day): 8000 to 16000 µg/mL (≈ 17 to 34 mM)
Approximate Solubility ([4]; THF, 1 day): <10000 µg/mL
Approximate Solubility ([4]; THF/water (1:1), 1 day): <16000 µg/mL
solubility at 1 day ([4]; THF/water (1:1), aqueous with cosolvent or surfactant or cyclodextrin, THF/water (1:1), 1 day): 8000 to 16000 µg/mL (≈ 17 to 34 mM)
Approximate Solubility ([4]; acetone, 1 day): <3000 µg/mL
solubility at 1 day ([4]; acetone, organic solvent or mixture, 1 day): > 2000 µg/mL
solubility at 1 day ([4]; heptane, organic solvent or mixture, 1 day): < 1000 µg/mL
solubility at 1 day ([4]; n-BuOH (n-butanol), organic solvent or mixture, n-BuOH, 1 day): < 1000 µg/mL
solubility at 1 day ([4]; organic solvent or mixture, all other solvents tested (not DMSO, DMA, NMP, THF/water, THF, DCM, acetone, 1,4-dioxane, MEK)): < 3000 µg/mL
solubility at 1 day ([4]; toluene, organic solvent or mixture, 1 day): < 1000 µg/mL
solubility at 1 day ([4]; water, 1 day): < 1000 µg/mL
Hygroscopicity [2]: slightly hygroscopic
DVS water uptake [2, 5]: about 2.5 wt %
DVS water uptake ([2]; between 0 and 90% RH, room temperature, listed as A): DVS: ~2.5 wt % water
Resulting Form(s) [3, 6]: No form change
Resulting Form(s) [3, 7]: still Form A
Resulting Form(s) [3, 8]: confirmed to be Form A
Structure (SMILES): CCOCc1cnc(Cl)nc1Oc1ccc2c(ccc3sc4c(c32)NC[C@@H](C)NC4=O)n1 [Form A, (R)-3-((2-chloro-5-(ethoxymethyl)pyrimidin-4-yl)oxy)-10-methyl-9,10,11,12-tetrahydro-8H-[1,4]diazepino[5′,6′:4,5]thieno[3,2-f]quinolin-8-one]

Resulting Form(s) ([3]; compression, 2000 psi, RT, 1 min, listed as B): B + A
Resulting Form(s) [3, 8]: confirmed to be Form A
Form change upon storage ([3]; storage in vials): convert to Form A
Structure (SMILES): CCOCc1cnc(Cl)nc1Oc1ccc2c(ccc3sc4c(c32)NC[C@@H](C)NC4=O)n1 [Form B, (R)-3-((2-chloro-5-(ethoxymethyl)pyrimidin-4-yl)oxy)-10-methyl-9,10,11,12-tetrahydro-8H-[1,4]diazepino[5′,6′:4,5]thieno[3,2-f]quinolin-8-one]
Resulting Form(s) [3, 7]: mainly Form B, with a small amount of Form A
